Results taken from patent publication US9458480B2, “Microorganisms and methods for the biosynthesis of adipate, hexamethylenediamine and 6-aminocaproic acid” (GENOMATICA, INC., priority 2009, dated 2016).

B1: paaJ: β-ketothiolase paaJ from Escherichia coli, His-tagged, purified (protein, UniProt P0C7L2 1-401, looked up)
3-oxoadipyl-CoA/3-oxo-5,6-dehy …: MREAFICDGIRTPIGRYGGALSSVRADDLAAIPLRELLVRNPRLDAECIDDVILGCANQAGEDNRNVARMATLLAGLPQSVSGTTINRLCGSGLDALGFAARAIKAGDGDLLIAGGVESMSRAPFVMGKAASAFSRQAEMFDTTIGWRFVNPLMAQQFGTDSMPETAENVAELLKISREDQDSFALRSQQRTAKAQSSGILAEEIVPVVLKNKKGVVTEIQHDEHLRPETTLEQLRGLKAPFRANGVITAGNASGVNDGAAALIIASEQMAAAQGLTPRARIVAMATAGVEPRLMGLGPVPATRRVLERAGLSIHDMDVIELNEAFAAQALGVLRELGLPDDAPHVNPNGGAIALGHPLGMSGARLALAASHELHRRNGRYALCTMCIGVGQGIAMILERV
modifications: His-tag
notes: β-ketothiolase paaJ from Escherichia coli, His-tagged, purified
B2: pcaF from Pseudomonas aeruginosa PAO1: β-ketothiolase pcaF from Pseudomonas aeruginosa PAO1 (protein, UniProt Q9I6R0 1-401, looked up)
Beta-ketoadipyl-CoA thiolase: MSREVFICDAVRTPIGRFGGSLSAVRADDLAAVPLKALVERNPGVDWSALDEVFLGCANQAGEDNRNVARMALLLAGLPESVPGVTLNRLCASGMDAIGTAFRAIACGEMELAIAGGVESMSRAPYVMGKADSAFGRGQKIEDTTIGWRFVNPLMKEQYGIDPMPQTADNVADDYRVSRADQDAFALRSQQRAGRAQEAGFFAEEIVPVTIRGRKGDTLVEHDEHPRPDTTLEALARLKPVNGPEKTVTAGNASGVNDGAAALVLASAEAVEKHGLTPRARVLGMASAGVAPRIMGIGPVPAVRKLLRRLDLAIDAFDVIELNEAFASQGLACLRELGVADDSEKVNPNGGAIALGHPLGMSGARLVLTALHQLEKSGGRRGLATMCVGVGQGLALAIERV
B3: pcaF from Pseudomonas putida KT2440: β-ketothiolase pcaF from Pseudomonas putida KT2440 (protein, UniProt Q51956 1-400, looked up)
Beta-ketoadipyl-CoA thiolase: MRDVFICDAIRTPIGRFGGALAGVRADDLAAVPLKALIEPNPAVQWDQVDEVFFGCANQAGEDNRNVARMALLLAGLPESIPGVTLNRLCASGMDAIGTAFRAIASGEMELAIAGGVESMSRAPFVMGKAESGYSRNMKLEDTTIGWRFINPLMKSQYGVDSMPETADNVADDYQVSRADQDAFALRSQQKAAAAQAAGFFAEEIVPVRIAHKKGETIVERDEHLRPETTLEALTKLKPVNGPDKTVTAGNASGVNDGAAALILASAEAVKKHGLTPRARVLGMASGGVAPRVMGIGPVPAVRKLTERLGVAVSDFDVIELNEAFASQGLAVLRELGVADDAPQVNPNGGAIALGHPLGMSGARLVLTALHQLEKSGGRKGLATMCVGVGQGLALAIERV

Experiments:
[1] = biological target: Lysine decarboxylase (EC 4.1.1.18) (Escherichia coli, UniProt P0A9H3); settings: E. coli enzyme; cited from earlier work
Chain of Lysine decarboxylase (EC 4.1.1.18) (P0A9H3 whole entry): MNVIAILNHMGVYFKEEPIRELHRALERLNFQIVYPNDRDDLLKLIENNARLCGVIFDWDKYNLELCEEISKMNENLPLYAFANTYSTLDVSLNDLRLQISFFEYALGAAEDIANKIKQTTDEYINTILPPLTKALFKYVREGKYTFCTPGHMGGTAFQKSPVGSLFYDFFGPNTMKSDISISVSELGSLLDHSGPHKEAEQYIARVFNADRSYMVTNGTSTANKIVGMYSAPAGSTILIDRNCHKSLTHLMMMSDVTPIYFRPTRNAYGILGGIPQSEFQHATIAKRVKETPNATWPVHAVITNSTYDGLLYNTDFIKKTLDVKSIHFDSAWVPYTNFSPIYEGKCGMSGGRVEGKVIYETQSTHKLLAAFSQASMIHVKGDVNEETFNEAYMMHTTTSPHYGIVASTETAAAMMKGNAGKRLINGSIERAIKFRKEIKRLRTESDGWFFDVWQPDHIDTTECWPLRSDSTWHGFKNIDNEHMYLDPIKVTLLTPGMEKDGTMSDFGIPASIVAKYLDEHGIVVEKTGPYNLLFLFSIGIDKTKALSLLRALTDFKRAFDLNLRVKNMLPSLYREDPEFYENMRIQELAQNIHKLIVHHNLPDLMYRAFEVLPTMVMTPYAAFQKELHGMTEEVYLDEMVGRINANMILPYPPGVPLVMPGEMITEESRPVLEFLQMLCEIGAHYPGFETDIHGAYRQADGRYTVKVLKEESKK

E. coli [2] = assay: Growth of E. coli in media containing various concentrations of 6-ACA; assay type: cell-based, Escherichia coli
Procedure: E. coli was inoculated into media and grown in either aerobic (left and right bars) or anaerobic (middle bars) conditions. The cultures were grown for 48 hrs during the first trial and 30 hrs for a second trial under aerobic conditions (right bars).
(§1) E. coli was assayed for tolerance, metabolic activity and growth during exposure to various concentrations of 6-aminocaproate (6-ACA). Aerobically, cultures were able to grow media with up to 10% 6-ACA, while anaerobic cultures could grow in media with approximately 6% 6-ACA (FIG. 15). Because the pathway for producing 6-ACA could require anaerobic conditions, all other further testing was performed under anaerobic conditions. To assay tolerance, cultures were grown anaerobically to mid-log(0.3 OD) and early stationary phase (0.6 OD), the cells were spun down and resuspended in medium containing various concentrations of 6-ACA. The cultures were grown in capped microfuge tubes, grown overnight and the ODs of the cultures were assayed (FIG. 16). Under these conditions, cultures were able to grow (double at least 1 time) in up to 10% 6-ACA. The additional tolerance could have been from the additional glucose from resuspending the cultures in fresh M9-glucose medium or from limited oxygen that was present in the capped microfuge tube. […]

E. coli [3] = assay: Tolerance of E. coli cells resuspended in medium with various concentrations of 6-ACA (OD after overnight growth); assay type: cell-based, Escherichia coli; settings: cells grown anaerobically to mid-log (0.3 OD) and early stationary phase (0.6 OD), resuspended in fresh M9-glucose medium, capped microfuge tubes
Procedure: Midlog (OD600=0.3, lower dashed line) or early stationary (OD600=0.6, upper dashed line) cells were spun down and resuspended in fresh M9-Glucose medium with various concentrations of 6-ACA. After overnight growth, cultures were measured for growth by measuring OD600.
as §1

E. coli [4] = assay: Ethanol production (metabolic activity) of E. coli cultures exposed to 6-ACA; assay type: cell-based, Escherichia coli; settings: resuspended cultures, overnight growth
Procedure: Midlog or early stationary cells were spun down and resuspended in fresh M9-Glucose medium with various concentrations of 6-ACA. After overnight growth, cultures were measured for growth by measuring OD600 and metabolic activity assayed by ethanol production.
as §1

E. coli [5] = assay type: cell-based, Escherichia coli
Procedure: FIG. 18, panels A and B, show the growth in various concentrations of 6-ACA with and without glycine betaine. Panel A. OD600 measurements of medium inoculated with midlog cultures of E. coli with various concentrations of 6-ACA with (right bars) and without (left bars) 2 mM glycine betaine. Panel B. Photograph showing the growth of same cultures in the anaerobic bottles.
At high concentrations (>65 g/L) the osmolarity of 6-ACA is ˜0.5 M which may cause osmotic stress. To determine osmotic stress as the basis for 6-ACA growth inhibition, cultures were grown in various concentrations of 6-ACA with and without the osmoprotectant glycine betaine. […] Therefore much of the toxicity of 6-ACA is likely due to the osmotic stress. However, it should be noted that […] is similar to the amino acid lysine and could have a greater toxic effect in the cell cytoplasm vs. outside the cell.

[6] = In vitro thiolase reactions with purified His-tagged thiolases, LC/MS analysis; assay type: biochemical; settings: for Condensation of succinyl-CoA and acetyl-CoA into β-ketoadipyl-CoA: 0.5 μM purified thiolase, succinyl-CoA:acetyl-CoA 2:1, 30° C., 30 minutes, LC/MS; for Activities in the oxoadipyl-CoA forming direction: as summarised in Example XXVI
Procedure: Succinyl-CoA and acetyl-CoA were added to His-tagged, purified thiolases at a ratio of 2:1 (succinyl-CoA:acetyl-CoA). Reactions were analyzed by LC/MS and quantified by comparison to a standard for acetoacetyl-CoA or peak area determined for 3-oxoadipyl-CoA (β-ketoadipyl-CoA).
For example, the gene products encoded by pcaF in Pseudomonas strain B13 (Kaschabek et al., J. Bacteriol, 184(1): 207-15 (2002)), phaD in Pseudomonas putida U (Olivera et al., Proc Nall Acad Sci USA, 95(11), 6419-24 (1998)), paaE in Pseudomonas fluorescens ST (Di Gennaro et al., Arch Microbiol, 188(2), 117-25 (2007)), and paaJ from E. coli (Nogales et al., Microbiology, 153(Pt 2), 357-65 (2007)) catalyze the conversion of 3-oxoadipyl-CoA into succinyl-CoA and acetyl-CoA during the degradation of aromatic compounds such as phenylacetate or styrene.
The genes were expressed in E. coli and the proteins purified using Ni-NTA spin columns and quantified. To assay enzyme activity in vitro, a […] CoA:DTNB (Ellman's reagent or 5,5′-dithiobis-(2-nitrobenzoic acid)) mixture was prepared. The mixture consisted of 10 mM succinyl-CoA, 5 mM acetyl-CoA, 30 mM DTNB in 100 mM Tris buffer, pH 7.4. […] of the CoA:DTNB mixture was added to 0.5 μM purified thiolase enzyme in 100 mM Tris buffer, pH 7.8 in a final volume of 50 μL. The reaction was incubated at 30° C. for 30 minutes, then quenched with 2.5 μL 10% formic acid and samples frozen at −20° C. until ready for analysis by LC/MS. Because many thiolases can condense two acetyl-CoA molecules into acetoaceytl-CoA, production of acetoacetyl-CoA was examined. […] These were fadAx from Pseudomonas putida, thiA from Clostridium acetobutylicum and thiB also from Clostridium acetobutylicum. […] There was excellent specificity between the thiolases.

| Molecule | Inhibition of lysine decarboxylase [1] | Condensation of succinyl-CoA and acetyl-CoA into β-ketoadipyl-CoA [6] | Activities in the oxoadipyl-CoA forming direction [6] | further results |
| --- | --- | --- | --- | --- |
| NC(CCCCC(=O)O)C(=O)O (stereo not drawn) [2-Aminopimelate] | competitive inhibitors |  |  |  |
| NCCCCCC(=O)O [6-ACA, 6-aminocaproic acid] | competitive inhibitors |  |  | 6-ACA concentration in media in which cultures were able to grow (E. coli [2]; aerobic): up to 10%; 6-ACA concentration in media in which cultures could grow (E. coli [2]; anaerobic): approximately 6%; 6-ACA concentration in which cultures were able to grow (double at least 1 time) (E. coli [3]): up to 10%; Ethanol production (metabolic activity) in the presence of 6-ACA (E. coli [4]): closely tracked with OD; 6-ACA concentration in medium allowing anaerobic growth (E. coli [5]): 4-6% |
| B1 |  | demonstrated the desired activity | significant and selective activities |  |
| B2 |  | demonstrated the desired activity | significant and selective activities |  |
| B3 |  | demonstrated the desired activity |  |  |
